“Also recorded” adds a separate entry of the source. Read-outs that look alike come from different tables or passages of the source.
How the values were obtained:
matriptase [1] = target: T1, matriptase (Homo sapiens, UniProt Q9Y5Y6); assay: Determination of inhibitory activity, Ki by Dixon plotting, matriptase; format: biochemical
T1 construct: Gels containing the 70-kDa active matriptase was sliced out, and eluted from gel; from tissue; host or cells: human milk
T1 sequence (Q9Y5Y6 615-855 limits assumed): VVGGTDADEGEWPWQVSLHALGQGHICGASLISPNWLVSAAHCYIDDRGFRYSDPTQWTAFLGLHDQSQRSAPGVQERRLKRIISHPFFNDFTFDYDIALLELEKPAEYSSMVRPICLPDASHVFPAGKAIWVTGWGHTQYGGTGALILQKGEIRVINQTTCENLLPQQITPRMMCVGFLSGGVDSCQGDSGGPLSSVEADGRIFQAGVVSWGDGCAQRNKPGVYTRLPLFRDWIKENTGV
T1 sequence (Q9Y5Y6 190-614 partner limits assumed): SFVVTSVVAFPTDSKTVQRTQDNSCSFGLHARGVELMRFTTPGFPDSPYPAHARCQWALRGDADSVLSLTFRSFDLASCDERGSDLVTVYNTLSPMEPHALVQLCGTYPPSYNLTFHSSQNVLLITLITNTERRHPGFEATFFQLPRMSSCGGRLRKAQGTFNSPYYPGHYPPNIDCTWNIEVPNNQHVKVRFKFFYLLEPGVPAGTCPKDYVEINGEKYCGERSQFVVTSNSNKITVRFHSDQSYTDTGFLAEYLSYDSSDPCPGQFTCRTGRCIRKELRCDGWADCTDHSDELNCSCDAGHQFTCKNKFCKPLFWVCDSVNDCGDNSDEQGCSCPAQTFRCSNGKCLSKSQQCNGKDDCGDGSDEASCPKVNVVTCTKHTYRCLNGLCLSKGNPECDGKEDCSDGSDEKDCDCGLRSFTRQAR
From the text: Purification of Active Form Matriptase. Activated matriptase, in a complex with its endogenous inhibitor HAI-1, was purified from human milk by immunoaffinity chromatography, and maintained in its uncomplexed status in glycine buffer pH 2.4, as described previously^11. Matritpase and HAI-1 were further separated by 10% SDS polyacryamide gel electrophoresis. The proteins were stained by Zinc stain Kit (Bio-Rad, Hercules, Calif.). Gels containing the 70-kDa active matriptase was sliced out, and eluted from gel using Electro-Eluter (Bio-Rad, Hercules, Calif.) under non-denatured conditions (Tris-Glysine buffer pH 8.3). Purified, active matriptase was then stored at −80° C. in acid solution.
(§1) Determination of Inhibitory Activity. Inhibitory activity of compounds against each protease was measured at room temperature using fluorescent substrate peptides in 100 mM Tris-HCl (pH 8.5), containing 100 μg/ml of bovine serum albumin. To a cuvette containing 170 μl buffer was added 10 μl of enzyme solution and 10 μl of inhibitors. After pre-incubation, 10 μl of substrate was added, and the solution was mixed well by shaking the cuvette. The residual enzyme activity was then determined by following the change of fluorescence released by hydrolysis of the fluorescent substrates in a fluorescent spectrophotometer (HITACHI F4500), with excitation at 360 nm and emission at 480 nm. Peptide N-t-Boc-Gln-Ala-Arg-AMC was used as a substrate for matriptase and trypsin, peptide N-t-Boc-Leu-Gly-Arg-AMC was used as a substrate for uPA, and peptide N-t-Boc-Leu-Arg-Arg-AMC was used as a substrate for thrombin.
(§2) Kinetic Screening of Compound Inhibitors. The inhibitory activity of each compound was first investigated by using a fixed (75 μM) concentration both of inhibitor and matriptase. […] We recorded the rate of hydrolysis in duplicate in the presence of 6-7 different concentrations of each inhibitor. A straight line of the concentration of inhibitor versus the reciprocal values of the rate of hydrolysis was plotted with SigmaPlot software. Two lines were obtained from two unsaturated substrate concentrations; the X value of the intersection of these lines gives the value of −Ki.

[2] = target: T2, urokinase-type plasminogen activator (uPA) (Homo sapiens, UniProt P00749); assay: Determination of inhibitory activity, Ki by Dixon plotting, uPA; format: biochemical; settings: for selectivity between matriptase and uPA (less potent for uPA than for matriptase): ratio of Ki values; for Ki: substrate N-t-Boc-Leu-Gly-Arg-AMC, pH 8.5, room temperature
T2 construct: from tissue; host or cells: human urine
From the text: (§3) Materials. Active matriptase was purified from human milk as will be described later. Active urokinase-type plasminogen activator (uPA) was purified by aminobenzamidine-Sepharose 6B (Amersham Pharmacia, Piscataway, N.J.) from a partially purified uPA from human urine. Bovin β-trypsin, bovine thrombin, and fluorescent peptide substrates N-tert-Butoxy-Carbonyl (N-t-Boc)-Gln-Ala-Arg-7-Amido-4-Methylcoumarin (AMC), N-t-Boc-Leu-Gly-Arg-AMC, and N-t-Boc-Leu-Arg-Arg-AMC were purchased from Sigma (Sigma Chemical Company, St. Louis). Small molecule inhibitors were obtained from the Drug Synthesis & Chemistry Branch, Developmental Therapeutics Program, Division of Cancer Treatment and Diagnosis, National Cancer Institute. Other chemicals are all reagent grade.
as §1, §2

bovine thrombin = target: T3, bovine thrombin (Bos taurus, UniProt P00735); assay: Determination of inhibitory activity, Ki by Dixon plotting, thrombin; format: biochemical; settings: for Ki: substrate N-t-Boc-Leu-Arg-Arg-AMC, pH 8.5, room temperature
T3 construct: bovine thrombin; purchased Sigma (Sigma Chemical Company, St. Louis)
From the text: as §3, §1, §2

matriptase [3] = target: T1, matriptase; assay: Matriptase enzyme activity and kinetic parameters with fluorescent peptide substrates; format: biochemical
From the text: Purification of active Matriptase_Active matriptase, in the complex form with its endogenous inhibitor HAI-1, was purified from human milk. To separate matriptase from the bound HAI-1, the complex was dissociated by acid and resolved in 10% SDS polyacryamide gel electrophoresis. The proteins were stained by Zinc stain Kit (Bio-Rad, Hercules, Calif.), the 70-kDa active matriptase was sliced out, and eluted from gel using Electro-Eluter (Bio-Rad, Hercules, Calif.) under non-denatured condition (Tris-Glysine buffer pH 8.3).
Determination of matriptase activity_The enzyme activity of matriptase was measured at room temperature in a reaction buffer containing 100 mM Tris-HCl (pH 8.5) and 100_g/ml of BSA using fluorescent peptide as substrate. In brief, 10_l of enzyme solution and 10_l of peptide substrate were added to a cuvette containing 180_l of the reaction buffer. The mixture was mixed well, placed back to a fluorescent spectrophotometer (HITACH F4500), and the release of fluorescence resulting from hydrolysis of the peptide substrate was recorded with excitation at 360 nm and emission at 480 nm.
Determination of kinetic parameter_Substrate concentration versus initial reaction velocity were analyzed by the Michaelis-Menten equation and plotted using SigmaPlot software. Double reciprocal (Lineweaver-Burk) plots thus derived were used to determine Vmax and Km values.
Table 1. Kinetic Parameters of Matriptase for Various Peptide Substrates. […], the release of fluorescence resulting from hydrolysis of the peptide was recorded in a fluorescent spectrophotometer at room temperature with excitation at 360 nm and emission at 480 nm. Km and Vmax were determined by double reciprocal plot derived from Michaelis-Menten equation: […]

[4] = test system: PC-3 prostate cancer tumors; settings: nude mice; cited from earlier work
[5] = read-out: Ki value against matriptase (bound stated in text)
[6] = substrate N-t-Boc-Gln-Ala-Arg-AMC, pH 8.5, room temperature, read-out: Ki Matriptase
[7] = peptide-AMC substrate hydrolysis by matriptase, room temperature

Row | Ki (matriptase [1]; [5]) [nM] | Ki (matriptase [1]; [6]) [nM] | Ki [2] [nM] | Ki (bovine thrombin) [nM] | Compound | selectivity matriptase versus thrombin/uPA (matriptase [1]) | further results
1 | – | 1160 | – | – | N=C(N)c1ccc(OCCCCCOc2ccc(C(=N)N)cc2)cc1 [Compound 3] | – | –
2 | – | 4500 | – | 28400 | N=C(N)c1ccc(/N=N/c2c(O)ccc3cc4c(/N=N/c5ccc(C(=N)N)cc5)c(O)ccc4cc23)cc1 [Compound 4] | – | –
3 | < 1000 | 535 | 1570 | 946 | N=C(N)c1ccc(OCCCOc2ccc(C(=N)N)cc2Br)c(Br)c1 [Compound 5] | – | more potent against matriptase (matriptase [1]; compared with 1 and 3): approximately 2 fold

Further lines, the compound ahead of its results:

Row | Compound | Ki (matriptase [1]; [5]) [nM] | Ki (matriptase [1]; [6]) [nM] | Ki [2] [nM] | Ki (bovine thrombin) [nM] | selectivity matriptase versus thrombin/uPA (matriptase [1]) | further results
4 | N=C(N)c1ccc(OCCCCCCOc2ccc(C(=N)N)cc2)cc1 [Compound 1, hexamidine, reference compound] | < 1000 | 924 | 14400 | 224 | thrombin selective | selectivity between matriptase and uPA (less potent for uPA than for matriptase) [2]: 16 fold
5 | N=C(N)c1ccc(OCCCCCCOc2ccc(C(=N)N)cc2I)cc1 [Compound 2] | < 1000 | 191 | 1980 | 796 | more selective for matriptase versus thrombin | improved potency for matriptase (matriptase [1]; compared with compound 1): approximately 5 fold; decreased potency for thrombin (bovine thrombin; compared with compound 1): approximately 4 fold
6 | N=C(N)c1ccc(Oc2ccc(Oc3ccc(C(=N)N)cc3)cc2)cc1 [Compound 7] | < 1000 | 208 | 1950 | 2670 | most selective inhibitor for matriptase; also recorded: matriptase selective; also recorded: most selective compound | selectivity between matriptase and uPA (less potent for uPA than for matriptase) [2]: 9 fold; selectivity between matriptase and thrombin (bovine thrombin; ratio of Ki values): 13 fold
7 | CC(=O)N[C@@H](CC(C)C)C(=O)N[C@@H](CC(C)C)C(=O)N[C@H](C=O)CCCNC(=N)N [leupeptin] | – | – | – | – | – | inhibition of matriptase enzyme activity (matriptase [3]): can also inhibit matriptase enzyme activity
8 | ecotin | – | – | – | – | – | growth of PC-3 prostate cancer tumors [4]: retards the growth
9 | hexamidine [Compound 1] | – | – | – | – | – | Km (matriptase [3]; [7]): 4.89 µM; Vmax (matriptase [3]; [7]): 654 nM Amc/min

Reference: US6677377B2, “Structure based discovery of inhibitors of matriptase for the treatment of cancer and other conditions” (Georgetown University School of Medicine, priority 2000, dated 2004)
